Assay results from publication PMC12136037, “Type II kinase inhibitors that target Parkinson’s disease–associated LRRK2” (Science Advances, 2025).

How the values were obtained:
Test in all cases: DSF 100 kinase selectivity screen;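 further: compound tested at 20 µM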
Format in all cases: binding
[1] = biological target: T1, ~100 representative kinases (Homo sapiens, UniProt P24941); conditions: Protein CDK2; average of three replicates
T1 construct: Recombinant protein kinase domains with a concentration of 2 μM
In short: (§1)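 Each kinase domain, at 2 μM, is mixed with 20 μM test compound and SYPRO Orange in Hepes (20 mM, pH 7.5) with 500 mM NaCl. Temperature is then raised at 3°C/min and fluorescence-monitored unfolding yields the melting temperature change, ΔTm in degrees Celsius.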

[2] = biological target: T2, ~100 representative kinases (Homo sapiens, UniProt P52564); conditions: protein MAP2K6; average of three replicates
T2 construct: Recombinant protein kinase domains with a concentration of 2 μM
T2 sequence (P52564 1-334): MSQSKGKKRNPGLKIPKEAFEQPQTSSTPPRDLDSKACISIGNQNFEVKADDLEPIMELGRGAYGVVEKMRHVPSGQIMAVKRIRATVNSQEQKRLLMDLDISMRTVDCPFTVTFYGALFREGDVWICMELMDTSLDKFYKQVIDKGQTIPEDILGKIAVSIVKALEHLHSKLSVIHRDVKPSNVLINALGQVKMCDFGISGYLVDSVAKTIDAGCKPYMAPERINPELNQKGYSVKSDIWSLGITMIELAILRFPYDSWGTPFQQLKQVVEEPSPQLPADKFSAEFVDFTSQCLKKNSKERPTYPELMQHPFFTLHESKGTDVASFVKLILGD
In short: as §1

[3] = biological target: T3, ~100 representative kinases (Homo sapiens, UniProt Q09013); conditions: Protein DMPK1; average of three replicates
T3 construct: Recombinant protein kinase domains with a concentration of 2 μM
T3 sequence (Q09013 1-629): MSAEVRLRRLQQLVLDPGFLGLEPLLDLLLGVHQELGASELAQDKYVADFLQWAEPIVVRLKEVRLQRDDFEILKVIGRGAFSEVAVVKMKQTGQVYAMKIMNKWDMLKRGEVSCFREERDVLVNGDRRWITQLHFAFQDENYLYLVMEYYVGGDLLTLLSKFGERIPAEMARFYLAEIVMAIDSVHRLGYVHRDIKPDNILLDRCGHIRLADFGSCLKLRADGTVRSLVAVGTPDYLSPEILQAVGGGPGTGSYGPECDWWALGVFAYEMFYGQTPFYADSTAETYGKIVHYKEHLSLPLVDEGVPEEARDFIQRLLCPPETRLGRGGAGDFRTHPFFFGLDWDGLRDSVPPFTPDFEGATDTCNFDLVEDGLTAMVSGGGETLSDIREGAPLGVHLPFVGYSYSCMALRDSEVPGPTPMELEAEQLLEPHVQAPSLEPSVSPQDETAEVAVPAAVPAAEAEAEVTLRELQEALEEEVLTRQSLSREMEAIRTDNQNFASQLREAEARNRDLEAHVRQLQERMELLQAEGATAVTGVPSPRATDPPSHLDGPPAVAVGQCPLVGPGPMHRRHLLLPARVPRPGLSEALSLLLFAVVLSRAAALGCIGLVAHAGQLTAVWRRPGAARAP
In short: as §1

[4] = biological target: T4, ~100 representative kinases (Homo sapiens, UniProt Q96PY6); conditions: protein NEK1; average of three replicates
T4 construct: Recombinant protein kinase domains with a concentration of 2 μM
T4 sequence (Q96PY6 1-1258): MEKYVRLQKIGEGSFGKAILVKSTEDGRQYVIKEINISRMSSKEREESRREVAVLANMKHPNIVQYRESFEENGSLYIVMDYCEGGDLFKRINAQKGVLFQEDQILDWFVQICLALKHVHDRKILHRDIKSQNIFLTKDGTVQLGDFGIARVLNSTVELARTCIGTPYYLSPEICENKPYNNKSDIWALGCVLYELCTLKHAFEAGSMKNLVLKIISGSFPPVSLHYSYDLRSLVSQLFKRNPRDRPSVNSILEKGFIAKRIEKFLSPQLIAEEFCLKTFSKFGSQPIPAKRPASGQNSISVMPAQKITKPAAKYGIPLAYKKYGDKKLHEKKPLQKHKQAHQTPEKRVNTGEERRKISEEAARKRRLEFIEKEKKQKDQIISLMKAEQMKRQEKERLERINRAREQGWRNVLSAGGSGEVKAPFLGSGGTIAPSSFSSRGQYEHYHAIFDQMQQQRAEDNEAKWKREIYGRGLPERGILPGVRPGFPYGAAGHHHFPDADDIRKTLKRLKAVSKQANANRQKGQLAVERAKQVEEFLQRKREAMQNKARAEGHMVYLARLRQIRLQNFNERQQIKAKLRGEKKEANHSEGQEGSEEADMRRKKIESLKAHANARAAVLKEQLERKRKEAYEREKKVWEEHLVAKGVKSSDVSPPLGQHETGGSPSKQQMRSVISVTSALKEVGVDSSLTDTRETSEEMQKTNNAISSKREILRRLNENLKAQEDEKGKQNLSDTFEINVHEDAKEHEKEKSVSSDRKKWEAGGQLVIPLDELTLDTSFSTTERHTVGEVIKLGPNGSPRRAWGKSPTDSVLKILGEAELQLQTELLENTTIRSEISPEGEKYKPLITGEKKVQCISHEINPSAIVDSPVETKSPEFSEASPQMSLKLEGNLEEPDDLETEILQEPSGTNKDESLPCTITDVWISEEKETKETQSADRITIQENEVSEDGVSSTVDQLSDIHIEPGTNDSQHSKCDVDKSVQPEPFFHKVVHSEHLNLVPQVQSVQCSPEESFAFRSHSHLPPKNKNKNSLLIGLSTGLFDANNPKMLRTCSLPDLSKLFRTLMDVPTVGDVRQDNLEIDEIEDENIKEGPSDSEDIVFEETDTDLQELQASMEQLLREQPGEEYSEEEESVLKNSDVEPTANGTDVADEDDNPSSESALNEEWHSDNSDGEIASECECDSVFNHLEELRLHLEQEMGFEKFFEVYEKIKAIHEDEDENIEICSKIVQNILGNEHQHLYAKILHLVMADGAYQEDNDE
In short: as §1

[5] = biological target: T5, ~100 representative kinases (Homo sapiens, UniProt Q9P289); conditions: protein MST4; average of three replicates
T5 construct: Recombinant protein kinase domains with a concentration of 2 μM
In short: as §1

T5 sequence (Q9P289 whole entry, the tested form may be a part): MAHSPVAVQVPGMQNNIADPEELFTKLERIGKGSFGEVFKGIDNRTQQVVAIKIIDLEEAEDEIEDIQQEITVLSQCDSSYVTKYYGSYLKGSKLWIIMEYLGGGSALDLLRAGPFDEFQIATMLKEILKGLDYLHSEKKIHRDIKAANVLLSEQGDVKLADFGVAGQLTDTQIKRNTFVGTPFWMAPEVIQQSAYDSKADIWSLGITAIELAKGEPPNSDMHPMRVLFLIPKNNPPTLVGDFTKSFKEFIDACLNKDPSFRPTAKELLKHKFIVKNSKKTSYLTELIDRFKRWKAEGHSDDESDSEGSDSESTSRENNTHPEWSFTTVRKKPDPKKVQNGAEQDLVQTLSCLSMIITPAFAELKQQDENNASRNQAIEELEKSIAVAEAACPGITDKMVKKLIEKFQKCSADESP

Row | dTm [1] [K] | dTm [2] [K] | dTm [3] [K] | dTm [4] [K] | dTm [5] [K] | Structure (SMILES)
1 | 14.76 | 1.76 | -2.53 | 0.13 | 6.29 | CC(C)(C)c1cc(NC(=O)Nc2cccc(-c3c[nH]c4ncnc(N5CCOCC5)c34)c2)n(-c2ccc3ncccc3c2)n1 [Compound 28]
2 | 12.74 | 2.48 | -2.09 | -1.22 | 3.56 | Cc1ccc(-n2nc(C(C)(C)C)cc2NC(=O)Nc2cccc(-c3c[nH]c4ncnc(N5CCOCC5)c34)c2)cc1 [Compound 29]
3 | 1.78 | 0.45 | -0.04 | -0.84 | -1.63 | Cc1ccc(-n2nc(C(C)(C)C)cc2NC(=O)Nc2cccc(-c3c[nH]c4nc(Cl)nc(N5CCOCC5)c34)c2)cc1 [Compound 30]
4 | 2.43 | 0.27 | -0.66 | -1.20 | -1.15 | CC(=O)N1CCN(c2nc(Cl)nc3[nH]cc(-c4cccc(NC(=O)Nc5cc(C(C)(C)C)nn5-c5ccc(C)cc5)c4)c23)CC1 [Compound 31]
5 | -0.66 | 9.56 | 0.30 | 0.22 | -3.37 | COc1cc(C(=O)N2CCOCC2)c(F)cc1Nc1nc(N(C)C)c2c(Cl)c[nH]c2n1 [Compound 36]
6 | -0.37 | 5.52 | 0.0114 | 0.73 | -1.65 | COc1cc(S(C)(=O)=O)ccc1Nc1nc(N(C)C)c2c(Cl)c[nH]c2n1 [Compound 37]
7 | 1.40 | 0.65 | 0.77 | 0.68 | 0.65 | CCNc1nc(Nc2cc(F)c(C(=O)N3CCOCC3)cc2OC)ncc1C(F)(F)F [GNE-7915]

Row | Structure (SMILES) | dTm [1] [K] | dTm [2] [K] | dTm [3] [K] | dTm [4] [K] | dTm [5] [K]
8 | CCSc1nc(NC)c2c(-c3cccc(NC(=O)Nc4cc(C(C)(C)C)nn4-c4ccc(C)cc4)c3)c[nH]c2n1 [Compound 32] | 0.83 | 0.13 | 0.38 | -1.34 | -2.75
9 | COc1cc2c(Oc3ccc(NC(=O)C4(C(=O)Nc5ccc(F)cc5)CC4)cc3F)ccnc2cc1OCCCN1CCOCC1 [Foretinib, reference compound] | 0.40 | 2.25 | -0.67 | 0.60 | 3.65
10 | Cc1ccc(C(=O)Nc2ccc(CN3CCN(C)CC3)c(C(F)(F)F)c2)cc1C#Cc1cnc2[nH]ncc2c1 [GZD-824, reference compound] | 4.99 | 0.96 | 3.13 | 1.45 | 8.85
11 | C[C@@H]1CN(c2cc(-c3n[nH]c4ccc(OC5(C)CC5)cc34)ncn2)C[C@H](C)O1 [MLi2] | -0.0213 | 0.18 | 0.14 | 0.27 | -0.41
12 | Cn1cc(-c2c[nH]c3ncnc(N4CCOCC4)c23)cc1C#N [PFE-360] | 0.68 | 1.09 | 1.66 | 0.39 | 1.97
13 | CNC(=O)c1cc(Oc2ccc(NC(=O)Nc3cc(C(C)(C)C)nn3-c3ccc4ncccc4c3)c(F)c2)ccn1 [Rebastinib, reference compound] | 9.06 | 0.26 | -0.79 | 2.10 | 5.29
